The subject of one assay is THP-1 cells. Nature of the assay: IL-1β secretion from LPS-primed THP-1 cells. In kind it is cell-based. The conditions noted are these: LPS-primed THP-1, 1.5 h, then ATP 5 mM 30 min, western blot. The method, then:
HCT116 cells were seeded in a six-well plate and treated with GSTO1 inhibitors for 24 h. Cells were washed with ice-cold PBS and lysed with a triple detergent lysis buffer supplemented with protease and phosphatase inhibitor cocktail. Lysate was sonicated and centrifuged at 12,000 r.p.m. for 10 min at 4 °C to remove cell debris. Total protein concentration in the supernatant was measured using BCA protein assay kit (Pierce Biotechnology). For IL-1β experiments, THP-1 cells (1 × 10^6 per well) were seeded in a 12-well plate and differentiated overnight with 10 nM phorbol myristate acetate. […] Band intensities were quantified using Image J software. […]
Supplementary Fig. 23. […] (a) ATP-induced IL-1β secretion from LPS-stimulated THP-1 cells was analyzed by ELISA. […] Cytokine secretion level is expressed as a percentage of that released from control cells treated with DMSO. Data are mean readings of duplicate wells. […]
treated with indicated concentrations of C1-27 or GLY (50 µM) for 1.5 h, followed by stimulation with ATP (5 mM) for 30 min. Concentrated supernatant was analyzed by western blotting using anti IL-1β antibody. […] Expression of pro- IL-1β in response to LPS was analyzed by western blotting. […] Representative plots of several gene expression datasets analyzed in Oncomine are shown. […]
For orientation: In western blotting, separated proteins are transferred to a membrane and probed.

The subject of the next assay is H460. The assay is described as follows: MTT cytotoxicity GI50, H460. In kind it is cell-based. The conditions noted are these: Homo sapiens, NCI-H460. The method, then:
Cell proliferation was assessed by a MTT assay. Cancer cells were seeded in 96-well microtitre plates and, after overnight attachment, treated with GSTO1 inhibitors. After 72 h, MTT solution (3 mg ml^−1; 20 μl) was added to each well and cells were incubated for 3 h at 37 °C. After incubation, media from each well was removed and the dark blue formazan crystals formed by live cells were dissolved in DMSO (150 μl per well). The absorbance intensity was measured at 570 nm on a microplate reader (Molecular Devices, Sunnyvale, CA, USA). Cell viability after 24 h treatment was assessed using ApoTox-Glo triplex assay (Promega) according to the manufacturer's protocol. At least three independent dose–response experiments with each concentration tested in triplicate were performed for each cell line.

The next assay addresses T1, Keap1 (Homo sapiens, UniProt Q14145).
T1 construct: endogenous in cells; host or cells: HCT116 p53+/+ cell lysate
The assay is described as follows: Cellular thermal-shift assay, Keap1. The conditions noted are these: HCT116p53+/+ cell lysate; 100 µM. The format is binding. The method, then: Cellular thermal-shift assay was performed as described previously. Briefly, HCT116^p53+/+ cells were collected, washed with PBS and diluted with cell lysis buffer (25 mM Tris-HCl (pH 7.5) and 10 mM MgCl2) supplemented with complete protease inhibitor cocktail. The cell suspension was frozen and thawed three times in liquid nitrogen. The soluble fraction was separated from debris by spinning down at 20,000g for 20 min. Cell lysate was then diluted with lysate buffer and divided into two aliquots—one treated with C1-27 (100 μM) and the other treated with 1% DMSO. After 30 min incubation at room temperature, the treated lysates were further divided into smaller aliquots (50 μl), which were then heated at different temperatures for 3 min on a Veriti thermal cycler (Applied Biosystems) followed by cooling for 3 min to room temperature. The heated lysates were centrifuged at 20,000g for 20 min at 4°C to separate the soluble fractions from precipitates. Supernatants were quantified and analysed by western blotting.
Supplementary Fig. 11. Target engagement by C1-27. (a-c) CETSA melt curves for GSTO1 (a ), PDI (b ) and Keap1 (c) in HCT116p53+/+ cell lysate treated with C1-27 (100 µM). 1% DMSO was used as control.
Data presented are mean ± SD of 3 independent experiments. A negative shift in the melting curves was […]

Another assay relates to HCT116 cells. The assay is described as follows: Bru-seq nascent RNA profiling. Particulars: 24 h treatment.

T1 sequence (Q14145 whole entry): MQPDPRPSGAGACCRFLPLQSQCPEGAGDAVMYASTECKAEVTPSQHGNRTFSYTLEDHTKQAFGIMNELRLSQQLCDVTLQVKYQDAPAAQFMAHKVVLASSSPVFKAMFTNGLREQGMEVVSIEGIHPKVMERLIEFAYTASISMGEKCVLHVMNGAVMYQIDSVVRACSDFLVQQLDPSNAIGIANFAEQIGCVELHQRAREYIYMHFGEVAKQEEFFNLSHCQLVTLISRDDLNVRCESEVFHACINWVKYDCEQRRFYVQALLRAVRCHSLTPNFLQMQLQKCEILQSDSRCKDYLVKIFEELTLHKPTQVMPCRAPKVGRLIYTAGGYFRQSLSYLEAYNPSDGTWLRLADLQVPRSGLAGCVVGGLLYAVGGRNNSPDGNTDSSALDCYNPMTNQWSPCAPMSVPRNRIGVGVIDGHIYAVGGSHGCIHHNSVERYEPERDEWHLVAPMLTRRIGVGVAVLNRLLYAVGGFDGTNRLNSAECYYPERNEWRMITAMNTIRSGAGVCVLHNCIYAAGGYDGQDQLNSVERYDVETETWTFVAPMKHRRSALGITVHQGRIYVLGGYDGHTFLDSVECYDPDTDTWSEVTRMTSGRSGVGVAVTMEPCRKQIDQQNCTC
Method for HCT116 cells: The data set was analysed using the DAVID, ingenuity pathway analysis (IPA) and GSEA for pathway identification. […] Data sets with nearly 250 genes containing the gene identifiers and fold changes were uploaded to the IPA web-based application and each gene identifier was mapped to its corresponding gene object in the ingenuity pathways knowledge base. Finally, the biological function genes were ordered by P value of significance and maximum number of genes in the pathway. Bru-Seq data were further analysed using GSEA for exploring the mechanism of cellular action of GSTO1 and its inhibitor. A pre-ranked gene list of the Bru-Seq data set was submitted to GSEA, and enrichment analysis was done based on the Kolmogorov–Smirnov statistic[59][60]. […] For each gene set, the ES (enrichment score) was normalized to account for differences in gene set size and the false discovery rate relative to the normalized enrichment score values was calculated.

Usually GI50 stands for the concentration giving 50% growth inhibition. Low readings indicate greater sensitivity of the cells, high ones lower sensitivity of the cells. For the compound `CN(C)S(=O)(=O)c1cc(NC(=O)CCl)ccc1Cl` [C1-27], the IL-1β release result in the assay with THP-1 cells is listed as “Dose-dependent inhibition”. This compound also came in with a GI50 in the assay on H460 of 3.3 µM. In addition, the “CETSA thermal shift of Keap1” value on Keap1 was “no shift”. The “overlap of transcriptional changes with the inactive control C1-14” value in the assay on HCT116 cells is reported as < 12%.
